This is an account of results in patent publication US20250092036A1, “COMPOUNDS AND COMPOSITIONS FOR MODULATING THE ACTIVITY OF ERK” (Novartis AG, priority 2023, published 2025).

Data set [1] concerns the target T1, ERK2[2-360(p-T185/p-Y187)]-Avi (Homo sapiens, UniProt P28482).
T1 construct: 400 pM ERK2[2-360(p-T185/p-Y187)]-Avi was added to the plate
In words: Biochemical assay (HTRF competition assay). It is filed as binding. The conditions noted are these: HTRF competition with Example 15 probe, overnight at RT; read-out: Biochemical qualified AC50.

A further data set relates to WM793 cells. Put plainly: Cell proliferation assay (CellTiter-Glo). The class given is cell-based. The conditions noted are these: Homo sapiens, WM793, 72 h, 3 d, read-out: Cell proliferation qualified AC50. The procedure, abridged:
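WM793 cells in RPMI + 10% FBS, 750 cells/well, treated 3 d at 37° C with 10-point 3-fold dilutions (highest 20 μM). CellTiter-Glo luminescence at Day 0 and Day 3; percent growth inhibition normalized to Day 3 DMSO wells and Day 0 counts, and IC50 taken from dose-response curves.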

The subject of data set [2] is WM793 BRAFV600E tumor xenograft. In words: Anti-tumor activity and tolerability in WM793 BRAFV600E tumor xenograft in nude mice. It is filed as in vivo.
Data set [3] deals with T2, nanobit-large-bit-ERK2 and nanobit-small-bit-PEA15 in WM793 cells (Homo sapiens, UniProt P28482).
T2 construct: expressed in transfected cells
T2 sequence (P28482 whole entry): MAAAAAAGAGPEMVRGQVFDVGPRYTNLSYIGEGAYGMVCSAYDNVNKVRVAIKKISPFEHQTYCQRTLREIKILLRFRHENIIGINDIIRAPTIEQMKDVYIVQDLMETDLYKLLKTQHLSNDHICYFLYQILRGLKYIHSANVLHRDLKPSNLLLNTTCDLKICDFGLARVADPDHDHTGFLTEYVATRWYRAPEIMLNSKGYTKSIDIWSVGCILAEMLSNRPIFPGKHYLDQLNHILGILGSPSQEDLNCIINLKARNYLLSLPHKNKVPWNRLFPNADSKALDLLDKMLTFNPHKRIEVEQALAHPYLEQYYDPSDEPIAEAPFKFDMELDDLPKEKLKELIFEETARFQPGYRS
Put plainly: NanoBiT assay. It is filed as cell-based. The conditions noted are these: WM793 nanobit stable cell line, overnight incubation; read-out: NanoBiT qualified absolute AC50. The procedure, abridged: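 WM793 cells stably expressing LgBiT-ERK2 and SmBiT-PEA15, treated overnight at 37 °C with a 10-point 3-fold dilution series, top final 30 μM. Luminescence was read and normalized to DMSO wells to give percent inhibition. IC50 was fitted from dose-response curves.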

T1 sequence (P28482 2-360 limits assumed): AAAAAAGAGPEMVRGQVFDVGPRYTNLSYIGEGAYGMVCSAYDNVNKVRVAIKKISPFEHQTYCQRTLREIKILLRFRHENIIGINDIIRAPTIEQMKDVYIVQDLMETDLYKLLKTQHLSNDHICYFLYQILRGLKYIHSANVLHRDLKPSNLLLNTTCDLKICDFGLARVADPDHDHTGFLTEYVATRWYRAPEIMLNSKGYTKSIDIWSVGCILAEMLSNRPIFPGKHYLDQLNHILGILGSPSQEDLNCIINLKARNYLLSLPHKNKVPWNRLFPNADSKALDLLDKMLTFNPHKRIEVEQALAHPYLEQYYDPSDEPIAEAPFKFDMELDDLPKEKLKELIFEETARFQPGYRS

With `CN1C[C@@H](F)[C@@H](NC(=O)C2(c3ccc(F)cc3)CCN(C(=O)c3c(C=O)n(CC4CCOCC4)c4ccc(Cl)cc34)CC2)C1` [Example 13, 1-(5-chloro-2-formyl-1-((tetrahydro-2H-pyran-4-yl)methyl)-1H-indole-3-carbonyl)-N-((3S,4R)-4-fluoro-1-methylpyrrolidin-3-yl)-4-(4-fluorophenyl)piperidine-4-carboxamide], the values for the AC50 (in data set [1]; with WM793 cells; in data set [3]) were 0.48 nM, 54 nM and 56 nM, respectively. In addition, in data set [2] (highest dosing group (300 mg/kg bid 2 day on, 1 day off)), the “animals sacrificed due to increased body weight loss” value was “One mouse at the highest dosing group was sacrificed on day 11”. For the same compound, the “anti-tumor activity (tumor volume) at the highest dose” value in data set [2] (per os, 300 mg/kg bid 2 day on, 1 day off, 14 days) is given as “regression”. For the same compound, the “anti-tumor activity (tumor volume)” value in data set [2] (per os, 30, 75, 150 mg/kg bid and 300 mg/kg bid 2 day on, 1 day off, 14 days) was “dose dependent antitumor activity”. Besides, in data set [2] (per os, 30-300 mg/kg bid, 14 days), the “Percent body weight change following first dose / tolerability” value was “minimal body weight loss and is well tolerated”.
